# Test results from PubChem BioAssay AID2305 (GlaxoSmithKline (GSK), 2010).
# pIC50: −log10 of the molar value.
# System: P. falciparum 3D7 growth, pLDH absorbance
# Experiment: P. falciparum 3D7 growth inhibition, dose response, strain 3D7 (AID 2305)
row,SMILES,pIC50
1,COc1cc(C(=O)N2CCN(C(C)C)CC2)ccc1CN(C)CCCCN1CCN(c2cccc(Cl)c2Cl)CC1,6.15
2,c1cc2nc(CCCCCc3nc4ccc(C5=N[C@@H]6CCCC[C@@H]6N5)cc4[nH]3)[nH]c2cc1C1=N[C@@H]2CCCC[C@@H]2N1,6.70
3,COc1ccc(CNCC2CCC(CNCCc3ccccc3)CC2)cc1Cl (stereo unspecified),6.10
4,O=C(NCC1CCC(C(=O)NCc2cccc(C(F)(F)F)c2)CC1)c1ccc(O)c(-c2ccc(Cl)c(Cl)c2)c1 (stereo unspecified),6.15
5,COc1cc(Cc2cnc(N)nc2N)cc(OC)c1OCCCCC(=O)O,5.94
6,Cc1cc(N)c2cc(NC(=O)/C=C/c3ccccc3Cl)ccc2n1,6.40
7,CC(Cc1ccc(OCCCCOc2ccccc2)cc1)NCCc1ccc(Oc2ccccc2)cc1 (stereo unspecified),6.09
8,N#Cc1ccc(C(=O)Nc2ccc(Cl)c(N3CCN(CCc4ccccc4)CC3)c2)cc1,6.03
9,CCCCCNc1nc(Nc2ccccc2C)nc2ccccc12,6.13
10,CCN1CC[C@]2(c3cccc(OC)c3)Cc3nc4ccccc4c(-c4ccccc4)c3C[C@H]2C1,6.46
11,CCOCn1c(-c2ccccc2)cc2c3c(N)nc(N)nc3ccc21,6.72
12,CN(C)CC1CCCN1Cc1ccccc1-c1cnn(C)c(=O)c1Oc1ccccc1F (stereo unspecified),5.88
13,CN1CCCN(Cc2cccc(-c3ccc(NS(=O)(=O)c4cccc5cccnc45)cc3)c2)CC1,6.02
14,O=C(/C=C/c1ccc(Cl)c(Cl)c1)NCCCCCN1CCC(NC(=O)Nc2ccc([N+](=O)[O-])cc2)CC1,6.16
15,O=C(CCCCCNC(=O)c1ccc(O)c(-c2ccc(Cl)c(Cl)c2)c1)NCc1cccc(C(F)(F)F)c1,6.14
16,COc1nc(Nc2cccc(C)c2)nc(OC)n1,6.00
17,CCOc1ccc(C(C)NC(=O)Cc2ccccc2F)cc1OCC (stereo unspecified),6.08
18,CC[C@H](N=C(Nc1ccc(C#N)cc1O)Nc1cccc(Cl)c1Cl)c1ccccc1,6.09
19,NC(=O)COc1c(C2CCN(CCCCNC(=O)c3ccc(-c4ccc(Cl)cc4)c(O)c3)CC2)ccc2c1CCCC2,6.15
20,O=C(Cc1cnc[nH]1)Nc1ccc(-c2ccc(-c3nc4ccccc4[nH]3)s2)cc1,5.97
21,Cc1ccc(NC(=O)c2ccc(CN3CCCN(Cc4cccc(O)c4)CC3)cc2)cc1C,6.07
22,CCN1CCN(c2ccc(Nc3c4ccccc4nc4ccccc34)cc2)CC1,6.14
23,CN(C)CCN(C)Cc1ccc(-c2cccc(-c3nc4ccccc4[nH]3)c2)cc1,6.12
24,COc1cccc2cc(C(=O)N[C@@H](CC(C)C)C(=O)N[C@H](/C=N/NC(=O)OC(C)(C)C)CC(=O)OC(C)(C)C)oc12,6.40

row,SMILES,pIC50
1,Cc1ccc(Nc2nccc(N(C)c3ccc4c(c3)nc(NC(=O)Cc3ccc(Cl)c(Cl)c3)n4C)n2)cc1S(N)(=O)=O,5.95
2,CCCCCCN(C(=O)OCc1ccccc1)[C@@H]1CCN(C(=O)OC(C)(C)C)C[C@H]1C(=O)OCC,6.43
3,COc1ccccc1CNc1ccnc(NCCc2cccc(C(F)(F)F)c2)n1,6.03
4,COc1ccc2nccc([C@@H](O)CNCCCN(C)CCOc3cc(F)cc(F)c3)c2c1,6.10
5,Cc1ccc2c(c1[N+](=O)[O-])N=NCC2Oc1ccccc1 (stereo unspecified),6.06
6,COC(=O)c1ccc(-c2ccc(C(=O)NCC3CCN(c4nc(N)c5cc(OC)c(OC)cc5n4)CC3)cc2)cc1,6.74
7,Cc1ccc(O)cc1Nc1ccnc2cc(-c3csc(CNCCN4CCOCC4)n3)ccc12,6.06
8,COCCN1CCC(N(Cc2ccc(-c3ccc(C(F)(F)F)cc3)cc2)C(=O)Cn2c(CCc3cccc(F)c3F)cc(=O)c3c2CCC3)CC1,5.88
9,O=S(=O)(c1c(Cl)cc(Cl)cc1Cl)N1CCCCC(c2ccc(C(F)(F)F)cc2)=N1,7.00
10,Cc1noc(-c2ccccc2)c1CN1CCCC2(CC(C(=O)NCc3cccc(F)c3F)=NO2)C1 (stereo unspecified),6.00
11,O=C(N[C@@H](Cc1ccccc1)[C@H](O)CNC1CCc2ccccc2C1)c1cc(C2CCCC2)cc(N2CCCC2=O)c1 (stereo partly specified),6.80
12,CN(C)CCCNc1nccc(N(C)c2ccc(NC(=O)Nc3cc(C(F)(F)F)ccc3F)cc2)n1,6.01
13,Cc1cc(C)n(-c2nc(Nc3cccc(C(F)(F)F)c3)nc(-n3nc(C)cc3C)n2)n1,6.44
14,CCCNC(=O)C1Cc2c([nH]c3ccc(Br)cc23)C2(CCN(CCc3ccccc3)CC2)N1 (stereo unspecified),6.17
15,CCc1cc(NC2CCN(C)CC2)nc(Nc2ccc(C)cc2)n1,6.16
16,CC1(C(=O)Nc2ccc([N+](=O)[O-])cc2O)CC2c3ccccc3C1c1ccccc12 (stereo unspecified),6.15
17,CCN(CC)CCOc1ccc(Nc2ncc3cc(-c4c(Cl)cccc4Cl)c(=O)n(C)c3n2)cc1,5.93
18,CC(C)CNC(=O)c1cncc(-c2ccc(CN(C)C3CCN(C)CC3)cc2)c1,6.06
19,COc1cc(Nc2nccc(N3CCC(NC(=O)C4COc5ccccc5O4)C3)n2)cc(OC)c1OC (stereo unspecified),6.04
20,CCC(C)NC(=O)Nc1ccc(-c2cccc(-c3nc4ccccc4[nH]3)c2)cc1 (stereo unspecified),6.09
21,Cc1noc(C)c1-c1cccc(CNCc2cccc(-c3ccc(-c4nc5c(C)cccc5[nH]4)cc3)c2)c1,6.72
22,N#Cc1c(N2CCCCCC2)nc(N)c2c(N)nc3c(c12)CC(=O)N3c1ccc(F)cc1,6.68
23,Cc1ccc(NC(=O)c2c(C)noc2-c2snnc2C)cc1,5.86
24,O=C(Nc1ccc(Cl)cc1)Nc1ccc2c(c1)N1CCN=C1S2,6.23

row,SMILES,pIC50
1,CCN1CCC(N2CCC(n3c(C)nc4cc(C(F)(F)F)ccc43)CC2)CC1,5.99
2,CN(C(=O)c1ccccc1)[C@@H]1c2cc(C#N)ccc2OC(C)(C)[C@H]1O,6.19
3,CN1CC=C(c2c[nH]c3ccc(-c4ccccc4)cc23)CC1,6.11
4,Cc1ccc2c(Cl)c(C(=O)N3CC(C)OC(C)C3)sc2c1 (stereo unspecified),6.74
5,COc1ccc(-n2nc(C)c3c2NC(=O)CC3c2ccccc2OCc2ccccc2F)cc1 (stereo unspecified),6.05
6,Oc1cccc(-c2cnc3ccc(NCc4ccc(F)cc4)nn23)c1,5.97
7,CN(C)c1ccnc2ccc(NC(=O)Nc3ccnc4ccccc34)cc12,6.89
8,NOCCCOc1ccccc1,6.49
9,Cc1ccc2c(=O)n(C)c(=O)n(C)c2n1,6.09
10,N#Cc1ccc2c(c1)CCN(CCC1CCC(NC(=O)Nc3ccncc3)CC1)C2 (stereo unspecified),5.95
11,Cc1ccc(-c2nc3ccc(C(=O)NC4CCN(Cc5ccccc5)CC4)cc3[nH]2)cc1,6.13
12,Cc1cccc(OCC2CCN(c3ncc(C(=O)NC4CC4)cc3Cl)CC2)c1,5.88
13,CN(C)CCCNc1ccnc2cc(Cl)ccc12,6.55
14,Cc1ccc(NS(=O)(=O)c2ccc(C(C)N3CCC(N4CCCCC4)CC3)cc2)cc1C (stereo unspecified),6.12
15,CC(=O)Nc1cccc(C(=O)Nc2cccc(-c3cccc(-c4nc5ccccc5[nH]4)c3)c2)c1,6.23
16,O=C(/C=C/c1ccc(Cl)c(Cl)c1)NCCCCCN1CCC(NC(=O)NC2CCCCC2)CC1,6.25
17,CCN(CC)C(=NCCCCCCN=C(/N=C(/N)Nc1ccc(C)cc1)N(CC)CC)/N=C(/N)Nc1ccc(C)cc1,6.27
18,CC[C@H](C)CNC(=O)c1cncc(-c2ccc(CNC3CCCC3)cc2)c1,5.95
19,COc1cc(NC(=O)c2sc(-c3ccc(Cl)cc3)cc2Cl)ccc1OCCN1CCCC1,6.01
20,CC(C)C(C)(C#N)NC(=O)CSc1nc2ccc([N+](=O)[O-])cc2s1 (stereo unspecified),5.99
21,Cc1ccc(Oc2ccccc2NC(=O)CCc2nc3ccccc3c(=O)[nH]2)cc1,6.08
22,O=C(Cc1cnc[nH]1)Nc1ccc(-c2cccc(-c3nc4ccc(F)cc4[nH]3)c2)cc1,6.10
23,CN(C)CCN(C)Cc1ccc(-c2ccc3c(Nc4ccc(Cl)cc4F)ccnc3c2)o1,6.44
